Test results taken from patent US6994992B1, “Androgen-induced suppressor of cell proliferation and uses thereof” (Trustees of Tufts College, priority 1999, dated 2006).

Key:
[1] = test system: AS3; experiment: Expression analysis of the AS3 transcript in LNCaP-FGC cells; assay type: cell-based, human
Protocol: Briefly, androgen-specific, low-abundance regulatory mRNA sequences expressed during the proliferative shutoff, were selected using the Wang-Brown approach (Wang et al., (1991) Proc. Natl. Acad. Sci. USA 88: 11505–11509). […] LNCaP-FGC cells were treated with 30 nM R1881 to generate proliferative shutoff. R1881 (methyltrienolone) is a synthetic, non-metabolized androgen (Roussell-UCLAF, Romainville, France). Exposure to androgen for 24 hours was required to commit LNCaP-FGC cells to an irreversible proliferative shutoff (Geck et al., (1997) J. Steroid Biochem. Mol. Biol. 63: 211–218). […] LNCaP-FGC cells reversibly arrested by CDHuS were considered as the shutoff-negative control; they were harvested after three days of CDHuS treatment. Total RNA was prepared by the acidic guanidinium-thiocyanate method and polyA RNA was purified by using the FastTrack™ kit (Invitrogen, San Diego, Calif.) (Chomczinsky et al., (1987) Anal. Biochem. 162: 156–159).
Furthermore, expression of the AS3 transcript positively correlated with proliferation arrest as this gene was expressed only in shutoff-positive cell lines and variants. […] An additional observation that indicates the AS3 gene codes for an inhibitor of the proliferation of prostate cells is the increase of AS3 mRNA levels in the rat prostate when proliferation was arrested by prolonged androgen administration. […]

[2] = test system: LNCaP-FGC cells; experiment: Proliferation of LNCaP-FGC cells in CDHuS with androgen; assay type: cell-based, human
Text: Androgens regulate prostate cell numbers and cell proliferation by three major mechanisms: a) inhibition of cell death (apoptosis), b) induction of cell proliferation (Step-1), and c) inhibition of cell proliferation (proliferative shutoff, Step-2) (Isaacs (1985) Prostate 5:545–557; Bruchovsky et al. (1975) Vit. &Horm. 33:61–102; Sonnenschein et al., (1989) Cancer Res. 49:3474–3481). Androgens affect epithelial and stromal cell types which, in turn, interact in the prostate (Hayward et al., (1997) Brit. J. Urol. Suppl. 2: 18–26). […] Proliferation is inhibited in these cells by sex steroid-stripped (charcoal-dextran treated) human serum (CDHuS) (Sonnenschein et al., (1989) Cancer Res. 49:3474–3481). Low androgen concentrations cancel this inhibition (Step-1) and at higher levels, androgens induce an irreversible proliferative shutoff (Step-2) (Sonnenschein et al., (1989) Cancer Res. 49:3474–3481; Soto et al., (1995) Oncology Res. 7: 545–558). During the shutoff period, these cells remain in the G0/G1 phase of the cell cycle. Prostate specific antigen (PSA) induction, however, is still dependent on androgens in these postmitotic cells (Soto et al., (1995) Oncology Res. 7: 545–558). […]

[3] = test system: STFX1 cells; experiment: BrdU incorporation, percent BrdU-labeled nuclei of STFX1 cells containing vector only or AS3 antisense constructs; assay type: cell-based; details: for percent BrdU-labeled nuclei: 10 nM R1881 for 24 h, BrdU labeling
Text: In particular, the AS3 antisense gene was cloned into the Clontech pRevTRE™ retroviral vector under the control of a tetracycline sensitive promoter. The promoter has seven repeats of the bacterial tetO operator sequence upstream of the minimal CMV promoter which can be bound by the tetracycline transactivator (tTA). The tTA is a fusion protein between the bacterial tetracycline repressor and the […] herpes virus transactivator. The tetracycline transactivator is sensitive for tetracycline such that, in the presence of tetracycline, the transactivator cannot bind the tetracycline promoter so the transgene is “off” and conversely, in the absence of tetracycline, the gene is “on” (i.e., the Tet-Off™ system; see, e.g., Clontech pRevTRE™ manual for further details).
The supernatants containing the highest amounts of virions were then used to infect the STFX1 cell line, a derivative of the MCF7-AR1 that has a tetracycline transactivator gene stably integrated. During the cloning and selection procedures, cells were maintained in 1 μg/mL of tetracycline to suppress the expression of the inducible transgenes.
In order to characterize the cell lines expressing AS3 antisense and the “control” cell lines having vector without insert, cells were incubated in the presence (i.e., the transgene is off) and absence of tetracycline (i.e., the transgene is on) and, after 36 hours, assayed for transcript expression using RT-PCR under standard conditions,
To determine the affect of androgen induced AS3 suppression of cellular growth, cells lines showing high levels of inducible AS3 antisense expression were chosen for further study. Cells were seeded onto coverslips in standard growth medium and allowed to grow for 5 days in the presence of 10 μg/ml tetracycline (hereafter “tet”). Then, vehicle or 10 nM of the androgen R1881 was added. Finally, 24 hours later, the cells were treated with 10 μg/ml of bromodeoxyuridine (BrdU) for several hours to measure the percent of cells actively proliferating as a function of BrdU incorporation during DNA replication. The cells were then fixed, Hoechst stained, and the percent number of BrdU-labeled cells was determined using immunocytochemistry (using standard BrdU labeling regents and protocols from Boheringer).

[4] = CDHuS supplemented with 30 pM R1881

For `C[C@]1(O)CC[C@H]2[C@@H]3CCC4=CC(=O)CCC4=C3C=C[C@@]21C` [R1881, methyltrienolone], the AS3 expression ([1]; 0.3–30 nM of R1881) was “strongly induced”, the AS3 expression [1, 4] was “not expressed” and the “proliferation of LNCaP-FGC cells” value ([2]; 0.3–30 nM of R1881) was “inhibited from proliferating”. For the same molecule, the “proliferation of LNCaP-FGC cells” value [2, 4] was “proliferated maximally”, the proliferative shutoff ([3]; AS3 levels reduced by antisense expression in the absence of tetracycline (sample 8 vs sample 6), 10 nM R1881) was “no longer induces a proliferative shutoff” and the “percent BrdU-labeled nuclei” value ([3]; STFX1 cells with AS3 antisense construct, +tet (antisense uninduced)) was 9.7 +/−0.6%. The “percent BrdU-labeled nuclei” value ([3]; STFX1 cells with AS3 antisense construct, −tet (antisense expressed)) was 29.1 +/−1.6%, the “percent BrdU-labeled nuclei” value ([3]; STFX1 cells with empty vector, +tet (10 μg/ml)) was 9.4 +/−1.7% and the “percent BrdU-labeled nuclei” value ([3]; STFX1 cells with empty vector, −tet (vector induced)) was 10.7 +/−0.9%. For the same molecule, the “number of proliferating cells in S phase” value ([3]; cellular levels of AS3 unaffected (samples 2, 4, 6) compared to sample 1 without androgen, 10 nM R1881) was “significant decrease”.
